Test results reported in PMC10532523, “Rifamycin-Related Polyketides from a Marine-Derived Bacterium Salinispora arenicola and Their Cytotoxic Activity” (Marine Drugs, 2023).

What was measured:
Type in all cases: cell-based
[1] = tested on: Raji; experiment: Cytotoxicity, CellTiter-Glo assay, Raji (Burkitt's lymphoma); conditions: Homo sapiens; Raji (Burkitt's lymphoma) cells; read-out: Growth inhibition GI50
Description: (§1) The cytotoxic activities of 1 and 6–8 against adherent cells and suspension cells were conducted by SRB (sulforhodamine B) assay and CellTiter-Glo assay, respectively, as described earlier. The compounds were dissolved and serially diluted in dimethyl sulfoxide. GraphPad Prism 8 (GraphPad Software Inc., San Diego, CA, USA) was used to determine GI50 values. Cancer and normal cell lines were purchased from the Japanese Cancer Research Resources Bank (JCRB) (NUGC-3, JCRB Cell Bank/Cat. # JCRB0822), the DSMZ-German Collection of Microorganisms and Cell Cultures (RPMI-8402, DSMZ/Cat # ACC 290; WSU-DLCL2, DSMZ/Cat # ACC 575), and the American Type Culture Collection (ATCC) (PC-3, ATCC/Cat. # CRL-1435; MDA-MB-231, ATCC/Cat. # HTB-26; ACHN, ATCC/Cat. # CRL-1611; NCI-H23, ATCC/Cat. # CRL-5800; HCT-15, ATCC/Cat. # CCL-225; HL-60, ATCC/Cat. # CCL-240; Raji, ATCC/Cat # CCL-86; K562, ATCC/Cat # CCL-243; NALM6, ATCC/Cat # CRL-3273; U266, ATCC/Cat # TIB-196); RPMI-1788, ATCC/Cat # TIB-156). Cells were cultured in Dulbecco’s Modified Eagles medium (ACHN, MDA-MB-231), RPMI-1640 medium (HCT-15, PC-3, NUGC-3, NCI-H23, Raji, NALM6, U266, WSU-DLCL2, RPMI-1788) or Improved Minimum Essential Medium (K562, HL-60), supplemented with fetal bovine serum and penicillin-streptomycin.

[2] = tested on: WSU-DLCL2; experiment: Cytotoxicity, CellTiter-Glo assay, WSU-DLCL2 (DLBCL); conditions: Homo sapiens, WSUDLCL2; WSU-DLCL2 (diffuse large B cell lymphoma) cells; read-out: Growth inhibition GI50
Description: as §1

[3] = tested on: HL-60; experiment: Cytotoxicity, CellTiter-Glo assay, HL-60 (AML); conditions: Homo sapiens; HL-60 (acute myelogenous leukemia) cells; read-out: Growth inhibition GI50
Description: as §1

[4] = tested on: PC-3; experiment: Cytotoxicity, SRB assay, PC-3 (prostate); conditions: Homo sapiens; PC-3 (prostate) cells; read-out: Growth inhibition GI50
Description: as §1

[5] = tested on: NALM6; experiment: Cytotoxicity, CellTiter-Glo assay, NALM6 (B-ALL); conditions: Homo sapiens, NALM-6; NALM6 (B cell acute lymphocytic leukemia) cells; read-out: Growth inhibition GI50
Description: as §1

[6] = tested on: NCI-H23; experiment: Cytotoxicity, SRB assay, NCI-H23 (lung); conditions: Homo sapiens; NCI-H23 (lung) cells; read-out: Growth inhibition GI50
Description: as §1

[7] = tested on: RPMI-1788; experiment: Cytotoxicity, CellTiter-Glo assay, normal RPMI-1788 (B lymphocytes); conditions: RPMI-1788 (normal B lymphocytes) cell line; read-out: Growth inhibition GI50
Description: as §1

[8] = tested on: RPMI-8402; experiment: Cytotoxicity, CellTiter-Glo assay, RPMI-8402 (T-ALL); conditions: Homo sapiens; RPMI-8402 (T cell acute lymphocytic leukemia) cells; read-out: Growth inhibition GI50
Description: as §1

[9] = tested on: HCT-15; experiment: Cytotoxicity, SRB assay, HCT-15 (colon); conditions: Homo sapiens; HCT-15 (colon) cells; read-out: Growth inhibition GI50
Description: as §1

[10] = tested on: MDA-MB-231; experiment: Cytotoxicity, SRB assay, MDA-MB-231 (breast); conditions: Homo sapiens; MDA-MB-231 (breast) cells; read-out: Growth inhibition GI50
Description: as §1

[11] = tested on: K562; experiment: Cytotoxicity, CellTiter-Glo assay, K562 (CML); conditions: Homo sapiens; K562 (chronic myelogenous leukemia) cells; read-out: Growth inhibition GI50
Description: as §1

[12] = tested on: ACHN; experiment: Cytotoxicity, SRB assay, ACHN (renal); conditions: Homo sapiens; ACHN (renal) cells; read-out: Growth inhibition GI50
Description: as §1

[13] = tested on: U266; experiment: Cytotoxicity, CellTiter-Glo assay, U266 (multiple myeloma); conditions: Homo sapiens, U-266; U266 (multiple myeloma) cells; read-out: Growth inhibition GI50
Description: as §1

[14] = tested on: NUGC-3; experiment: Cytotoxicity, SRB assay, NUGC-3 (stomach); conditions: Homo sapiens; NUGC-3 (stomach) cells; read-out: Growth inhibition GI50
Description: as §1

[15] = tested on: all the tested cell lines; experiment: Cytotoxicity against the whole panel (one normal, six solid, seven blood cancer cell lines); conditions: span over one normal, six solid and seven blood cancer cell lines; read-out: GI50 across all the tested cell lines
Description: as §1

[16] = tested on: solid cancer cells; experiment: Cytotoxicity against solid cancer cells (SRB assay); conditions: span over solid cancer cell lines
Description: as §1

Row | Structure (SMILES) | GI50 [1] [µM] | GI50 [2] [µM] | GI50 [3] [µM] | GI50 [4] [µM] | GI50 [5] [µM] | GI50 [6] [µM] | GI50 [7] [µM] | GI50 [8] [µM] | GI50 [9] [µM] | GI50 [10] [µM] | GI50 [11] [µM] | GI50 [12] [µM] | GI50 [13] [µM] | GI50 [14] [µM] | GI50 [15] [µM] | GI50 [16] [µM]
1 | COc1cccc2c1C(=O)c1c(O)c3c(c(O)c1C2=O)C[C@@](O)(C(=O)CO)C[C@@H]3O[C@H]1C[C@H](N)[C@H](O)[C@H](C)O1 [Adr., Adriamycin, reference compound] | 0.003 | 0.002 | 0.021 | 0.144 | 0.002 | 0.151 | 0.014 | 0.014 | 0.137 | 0.159 | 0.057 | 0.168 | 0.034 | 0.136 |  | 
2 | CC(=CC1C(=O)OC(C(C)C(O)C(C)C(O)C(C)C=CC=C(C)C(=O)NC2=CC(=O)c3cc(O)c(C)c(O)c3C2=O)C(C)C1O)C(=O)O (centres unmarked) [Compound 1, salinisporamycin C] | 5.37 | 2.36 | 9.96 | 8.46 | 4.28 | 8.05 | 8.47 | 4.75 | 9.25 | 8.79 | 7.17 | 8.45 | 2.63 | 7.41 | 2.36 to 9.96 | 
3 | CC1=CC=CC(C)C(O)C(C)C(O)C(C)C(O)C(C)C(O)C=COC2(C)Oc3c(C)cc4c(O)c(cc(OC(=O)CO)c4c3C2=O)NC1=O (centres unmarked) [Compound 6, 8-deoxy-25-desacetyl-27-demethyl-rifamycin L] | 12.1 | 5.4 | 4.79 | 26.6 | 4.76 | 21.8 | 4.93 | 2.45 | 24.2 | > 30 | 9.53 | > 30 | 2.3 | 29.8 |  | 21.8 to 29.8
4 | CC(=O)CC1OC(C(C)C(O)C(C)C(O)C(C)C=CC=C(C)C(N)=O)C(C)C1O (centres unmarked) [Compound 7, salinifuran A] | > 30 | > 30 | > 30 | > 30 | 26.8 | > 30 |  | > 30 | > 30 | > 30 | > 30 | > 30 | > 30 | > 30 |  | 
5 | C/C(=C/C=C/[C@H](C)[C@H](O)[C@@H](C)[C@@H](O)[C@@H](C)[C@@H]1O[C@@]2(C)CC[C@@H](O2)[C@H]1C)C(N)=O [Compound 8, saliniketal A] | > 30 | > 30 | > 30 | > 30 | > 30 | > 30 |  | > 30 | > 30 | > 30 | > 30 | > 30 | > 30 | > 30 | > 30 | 
